Results published in patent US7015249B1, “Methods and compositions for treating diabetes” (Purdue Research Foundation, priority 1997, dated 2006).
Marks after values point to notes of the source that are not given here.

Experiments:
[1] = system: Zucker rats; assay: Plasma insulin, triglyceride and free fatty acid concentrations in Zucker rats; assay type: in vivo, rat; details: fed, diets 14 days
From the text: Diet components were obtained from Dyets, Inc. (Bethlehem, Pa.) and the CLA isomeric mixture (90% pure mixture) from PharmaNutrients, Chicago, Ill. The CLA mixture had the following isomeric distribution: 42% of a composition including cis,trans-9,11 and trans,cis-9,11-octadecadienoic acid; 43.5% trans,cis-10,12-octadecadienoic acid; 1% cis,cis-9,11-octadecadienoic acid; 1% cis,cis-10,12-octadecadienoic acid; and 1.5% of a composition including trans,trans-9,11-octadecadienoic acid and trans,trans-10,12-octadecadienoic acid, all on a weight percent basis. The CLA mixture also included, on a weight percent basis, about 0.5% linoleate, about 5.5% oleate and about 5% other lipids as discussed above. The thiazolidinedione, TZD (Rezulin™, Parke-Davis, Ann Arbor, MI), was used as a positive control for anti-diabetic activity in these studies. Male Zucker fatty (fa/fa) rats and lean littermates (wt) were obtained at six weeks of age from Genetic Models, Inc. (Indianapolis, Ind.). Because the primary aim of the study was to determine the ability of CLA to improve insulin action and prevent the onset of diabetes, all rats were determined normoglycemic prior to assignment to experimental treatments. After maintaining rats on experimental diets for 14 days, rats were euthanized by CO2 and cervical dislocation and blood collected and immediately analyzed for post-prandial glucose concentrations (see below) or placed into heparinized test tubes for plasma analyses as described below. Epididymal fat pads and livers were harvested and weighed. An aliquot of the epididymal fat pad was isolated into buffered saline for glucose transport analyses and the remaining epididymal fat pad and gastrocnemius muscle were isolated, immediately frozen in liquid nitrogen and stored at −80° C. until mRNA and protein analyses were performed. Three isocaloric, experimental diets were formulated according to a modified AIN-76 mixture containing 6.5% (by weight) fat (diet described in American Institute of Nutrition: Report of the American Institute of Nutrition Ad Hoc Committee on Standards for Nutritional Studies, J. Nutr. 107 1340–1348 (1977) but includes 6.5% by weight fat instead of 5% by weight fat). […] Body weights were measured twice weekly and average food consumption estimated by measuring differences in weight of freshly supplied diet and diet remaining in feeders two days later. […] Blood glucose levels were determined using a One Touch glucose meter (Lifescan, Inc.). Plasma insulin levels were determined using commercially available radioimmunoassay kits (Linco Research, St. Charles, Mo.). Plasma nonesterified fatty acids were quantified using a calorimetric kit (Wako). Plasma triglyceride concentrations were determined using a commercially available kit (Sigma Diagnostics, St. Louis, Mo.).

[2] = system: ACO and mAP2 mRNA; assay: Tissue-specific gene expression (ACO, mAP2) by RT-PCR in rats fed experimental diets; assay type: in vivo, rat; details: diet 14 days, 1.5% CLA or 0.2% troglitazone, vs control diet
Experimental: Male Zucker fatty (fa/fa) rats and lean littermates (wt) were obtained at six weeks of age from Genetic Models, Inc. (Indianapolis, Ind.). Because the primary aim of the study was to determine the ability of CLA to improve insulin action and prevent the onset of diabetes, all rats were determined normoglycemic prior to assignment to experimental treatments. (The diets are discussed in the subsequent section). After maintaining rats on experimental diets for 14 days, rats were euthanized by CO2 and cervical dislocation and tissues collected, weighed and frozen. RT-PCR was performed as described above. The genes utilized as markers of tissue and subtype specific PPAR activation included Acyl-CoA Oxidase (ACO; found in the liver and induced by PPARα activation), Adipocyte Specific Protein (mAP2; found in adipose tissue and induced by activation of PPARγ) and ACO in the muscle (induced by PPARβ). […] Body weights were measured twice weekly and average food consumption estimated by measuring differences in weight of freshly supplied diet and diet remaining in feeders two days later. […]

In the case of `Cc1c(C)c2c(c(C)c1O)CCC(C)(COc1ccc(CC3SC(=O)NC3=O)cc1)O2` (centres unmarked) [Troglitazone], the “Free Fatty Acids + S.D.” value ([1]; fa/fa rats) is reported as 0.778 + 0.378^c mMol, the “Plasma Triglycerides ± S.D.” value ([1]; fa/fa rats) is reported as 57.08 ± 12.3^c mg/dl and the “Free Fatty Acids + S.D.” value ([1]; wt (lean) rats) is reported as 1.139 + 0.277^c mMol. For the same compound, the “Plasma Triglycerides ± S.D.” value ([1]; wt (lean) rats) was 61.1 ± 12.1^c mg/dl and the “ACO mRNA expression in tissue with predominantly PPARβ (muscle)” value [2] was “no effect”.
